Measurements reported in patent publication US11351184B2, “Preparation of Pulsatilla saponin B4 for injection” (priority 2017, dated 2022).

How the values were obtained:
[1] = tested on: Cisplatin-induced Acute Kidney Injury In Mice; assay: Effect of B4 by different administration routes on cisplatin-induced acute kidney injury in mice; type: in vivo, ICR mouse; details: for BUN / Crea / TP / Urine protein: 4 days; for Reduction of effective dose to reverse cisplatin-induced renal injury, injection compared with oral administration: iv 5 mg/kg versus gavage 100 mg/kg
Description: Pulsatilla saponin B4 was orally and intravenously administrated in parallel, the effect of Pulsatilla saponin B4 in different administration routes on acute nephritis in cisplatin (CDDP)-stimulated mouse serum was investigated.
The drugs were all prepared into a solution with a specified concentration under “Test Method” with double distilled water and administered in the prescribed manner.
2.2 Modeling method: models were made at a dose of […] of cisplatin, the mice in normal group were injected with physiological saline intraperitoneally and the mice in other groups were injected with cisplatin intraperitoneally.
2.3 Grouping and administration: Animals were randomly divided into seven groups, 10-12 animals in each group:
(3) Dexamethasone positive group (0.5 mg/kg·body weight), dexamethasone solution was administered by gavage at a dose of 20 ml/kg·body weight;
(4) B4 high-dose group administered intravenously (5 mg/kg·body weight), B4 solution was injected into the tail vein at a dose of 5 ml/kg·body weight;
(5) B4 low-dose group administered intravenously (2.5 mg/kg·body weight), B4 solution was injected into the tail vein at a dose of 5 ml/kg·body weight;
(6) B4 high-dose group administered by gavage (100 mg/kg·body weight), B4 solution was given by gavage at a dose of 20 ml/kg·body weight;
(7) B4 low-dose group administered by gavage (50 mg/kg·body weight), B4 solution was given by gavage at a dose of 20 m/kg·body weight;
Drugs were administered continuously for 4 days from the day of modeling.
Urine was collected 0.5 hours after the last administration and urine protein was measured; blood was collected from the eyeball 1 hour after the administration, and the whole blood of the mice was placed at room temperature for 2 hours, centrifuged at 3500 rpm/min for 15 minutes, 200 μl supernatant was measured by an automatic biochemical analyzer to determine the total protein (TP), urea nitrogen (BUN) and creatinine (Cre).

[2] = Water solubility of Pulsatilla saponin B4; type: physicochemical
[3] = Compatibility test of raw materials and excipients (high temperature and illumination); type: physicochemical
Description: The content of Pulsatilla saponin B4 in the following experimental examples and examples is determined according to the following method:
Chromatographic column: C18, 250 mm×4.6 mm, 5 μm
Mobile phase: acetonitrile-water (26:74) (volume ratio)
An appropriate amount of Pulsatilla saponin B4 control sample was taken, weighed precisely, placed into a 10 ml volumetric flask, added with methanol to dissolve and dilute to the mark, the solution was shaken well and filtered to obtain a solution with 1 mg Pulsatilla saponin B4 control sample/1 ml solution.
About 25 mg of test sample was taken, weighed precisely, placed into a 25 ml volumetric flask, added with the mobile phase to dissolve and dilute to the mark, the solution was shaken well and filtered through a 0.22 μm microporous membrane, the filtrate was taken to obtain the test sample.
10 μl of the test solution was taken and injected into a liquid chromatograph, the chromatogram was recorded. The calculation formula was as follows: […]
Pulsatilla saponin B4 raw material was mixed with various excipients (water for injection, physiological saline, mannitol, lactose, sucrose and glucose) in a ratio of 1:5 (mass), and then placed under the conditions of high temperature (60° C. and 40° C.) and illumination (4500Lux±500), the samples were taken on day 0, 7 and 14 to investigate the purity of Pulsatilla saponin B4 and related substances.

[4] = dexamethasone 0.5 mg/kg by gavage, serum 1 h after last administration
[5] = B4 iv (tail vein) 2.5 mg/kg, serum
[6] = B4 po (gavage) 100 mg/kg, serum
[7] = day 0, raw material:excipient 1:5 (mass)
[8] = day 7, illumination (4500Lux±500)
[9] = day 14, illumination (4500Lux±500)

C[C@@H]1C[C@H]2[C@@H]3CCC4=CC(=O)C=C[C@]4(C)[C@@]3(F)[C@@H](O)C[C@]2(C)[C@@]1(O)C(=O)CO [Positive control, Dexamethasone, reference compound]
BUN [1, 4]: 42.97 ± 27.45 mg/dL
Crea [1, 4]: 30.10 ± 3.93 µmol/L
TP [1, 4]: 52.90 ± 2.50 g/L
BUN ([1]; dexamethasone 0.5 mg/kg by gavage, serum 1 h after last administration, listed as positive control): decreased significantly
Urine protein ([1]; dexamethasone 0.5 mg/kg by gavage, urine 0.5 h after last administration): 1.00 ± 0.27 mg/mL
Urine protein ([1]; dexamethasone 0.5 mg/kg by gavage, urine 0.5 h after last administration, listed as positive control): decreased significantly

C=C(C)C1CC[C@]2(C(=O)O[C@@H]3O[C@H](CO[C@@H]4O[C@H](CO)[C@@H](O[C@@H]5O[C@@H](C)[C@H](O)[C@@H](O)[C@H]5O)[C@H](O)[C@H]4O)[C@@H](O)[C@H](O)[C@H]3O)CC[C@]3(C)[C@H](CC[C@@H]4[C@@]5(C)CC[C@H](OC6OC[C@H](O)[C@H](O)[C@H]6O[C@]6(O)O[C@@H](C)[C@H](O)[C@@H](O)[C@H]6O)[C@@](C)(CO)[C@@H]5CC[C@]43C)[C@@H]12 (stereo partly drawn) [Prescription B4, Pulsatilla saponin B4]
water solubility [2]: good water solubility
BUN [1, 5]: 69.26 ± 45.76 mg/dL
Crea [1, 5]: 29.27 ± 5.66 µmol/L
TP [1, 5]: 47.58 ± 2.50 g/L
Urine protein ([1]; B4 iv (tail vein) 2.5 mg/kg, urine): 1.35 ± 0.39 mg/mL
TP ([1]; B4 iv (tail vein) 5 mg/kg, serum): 46.58 ± 2.25 g/L
BUN ([1]; B4 po (gavage) 50 mg/kg, serum): 50.1 ± 5.38 mg/dL
Crea ([1]; B4 po (gavage) 50 mg/kg, serum): 30.28 ± 4.77 µmol/L
TP ([1]; B4 po (gavage) 50 mg/kg, serum): 47.69 ± 3.17 g/L
Urine protein ([1]; B4 po (gavage) 50 mg/kg, urine): 1.37 ± 0.31 mg/mL
Crea [1, 6]: 28.17 ± 3.01 µmol/L
TP [1, 6]: 48.15 ± 3.68 g/L
Urine protein ([1]; B4 po (gavage) 100 mg/kg, urine): 1.19 ± 0.25 mg/mL
Reduction of effective dose to reverse cisplatin-induced renal injury, injection compared with oral administration [1]: at least 20 times
Reduction of effective dose to reverse cisplatin-induced renal injury, injection compared with oral administration ([1]; listed as Pulsatilla saponin B4): 20 times
Purity (%) [3, 7]: 99.10%
Related substances (%) Max single impurity [3, 7]: 0.40%
Related substances (%) Total impurities [3, 7]: 0.65%
Content (%) 40° C. ([3]; day 7, 40° C.): 98.96%
Related substances (%) 40° C. Max single impurity ([3]; day 7, 40° C.): 0.40%
Related substances (%) 40° C. Total impurities ([3]; day 7, 40° C.): 0.64%
Content (%) 60° C. ([3]; day 7, 60° C.): 98.93%
Related substances (%) 60° C. Max single impurity ([3]; day 7, 60° C.): 0.41%
Related substances (%) 60° C. Total impurities ([3]; day 7, 60° C.): 0.66%
Content (%) illumination [3, 8]: 98.97%
Related substances (%) illumination Max single impurity [3, 8]: 0.40%
Related substances (%) illumination Total impurities [3, 8]: 0.64%
Content (%) 40° C. ([3]; day 14, 40° C.): 98.86%
Related substances (%) 40° C. Max single impurity ([3]; day 14, 40° C.): 0.41%
Related substances (%) 40° C. Total impurities ([3]; day 14, 40° C.): 0.63%
Content (%) 60° C. ([3]; day 14, 60° C.): 98.89%
Related substances (%) 60° C. Max single impurity ([3]; day 14, 60° C.): 0.41%
Related substances (%) 60° C. Total impurities ([3]; day 14, 60° C.): 0.64%
Content (%) illumination [3, 9]: 98.95%
Related substances (%) illumination Max single impurity [3, 9]: 0.42%
Related substances (%) illumination Total impurities [3, 9]: 0.64%
